# Experimental data published in patent US20070253980A1, “New pharmaceutical composition from natural materials for regulating immunity, its preparation method and use” (priority 2006, published 2007).
# Key:
# C8166 cells [1] = test: Cytotoxic effect on C8166 cells (MTT); type: cell-based; conditions: three days, one value per date of experiment
# C8166 cells [2] = test: Protective experiment: survival rate of normal cells (MTT); type: cell-based; conditions: normal C8166 cells in protective experiment, three days
# Protocol: 50 µl medium was added into half of the holes on the culture plate and 50 µl diluted supernatant fluid of HIV-1, in which the value of M.O.I was 0.0089, was added into the other half of the holes on the culture plate. At the same time, the blank control holes without the drug (the negative control) were set and the control culture holes with positive drug AZT (the positive control) were set too. They were put into 5% CO2 incubator under 37 °C for three days. The survival rate of cells was determined by MTT method. […] The following formulae were used to calculate the survival rate of normal cells caused by the drug and the protective rate of the drug for HIV-1-infected cells. Survival rate of normal cells(%)=OD value of the experimental hole/OD value of negative control hole□100% Protective rate of infected cells(%)=(OD value of the experimental hole−OD value of positive control hole)/(OD value of negative control hole−OD value of positive control hole)□100%
structure (smiles),measurement,setting,value
Cc1cn([C@H]2C[C@H](N=[N+]=[N-])[C@@H](CO)O2)c(=O)[nH]c1=O [AZT],TC50,C8166 cells [1],>50 µg/mL
same,TC50,C8166 cells [2],>50 µg/mL
